Values of other authors, collected in patent publication US20040176344A1, “METHOD TO TREAT PATIENTS WITH AMYOTROPHIC LATERAL SCLEROSIS AND THE LIKE” (priority 2004, published 2004).

What was measured:
mouse of ALS = details: mouse model of ALS; J Neurochem 2003
[1] = acute intermittent porphyria; Khanderia 1986

| Structure (SMILES) | effect on disease progression (mouse of ALS) | adverse effect that precludes prophylactic use [1] |
| --- | --- | --- |
| Cl.O=C([O-])c1ccc(-c2c3nc(c(-c4ccc(C(=O)O)cc4)c4nc(c(-c5ccc(C(=O)O)cc5)c5ccc([nH]5)c(-c5ccc(C(=O)[O-])cc5)c5ccc2[n-]5)C=C4)C=C3)cc1.[Fe+3] [FeTCPP] | helpful in slowing disease progression | – |
| C=CC1=C(C)c2cc3[n-]c(cc4[n-]c(cc5nc(cc1n2)C(C)=C5C=C)c(C)c4CCC(=O)O)c(CCC(=O)O)c3C.O.[Fe+2] [hematin] | – | causes circulatory collapse |
